Experimental data published in patent publication US20060069123A1, “Substituted dipiperidine CCR2 antagonists” (priority 2004, published 2006).
Like-named read-outs stand apart in the source and are kept apart here.

What was measured:
THP-1 cells [1] = test: MCP-1 Induced Chemotaxis in THP-1 Cells; type: cell-based; conditions: Homo sapiens, read-out: Inhibition of MCP-1 Induced Chemotaxis IC50
CCR2 = molecular target: T1, CCR2 (Homo sapiens, UniProt P41597)
T1 sequence (P41597 1-360 isoform P41597-2): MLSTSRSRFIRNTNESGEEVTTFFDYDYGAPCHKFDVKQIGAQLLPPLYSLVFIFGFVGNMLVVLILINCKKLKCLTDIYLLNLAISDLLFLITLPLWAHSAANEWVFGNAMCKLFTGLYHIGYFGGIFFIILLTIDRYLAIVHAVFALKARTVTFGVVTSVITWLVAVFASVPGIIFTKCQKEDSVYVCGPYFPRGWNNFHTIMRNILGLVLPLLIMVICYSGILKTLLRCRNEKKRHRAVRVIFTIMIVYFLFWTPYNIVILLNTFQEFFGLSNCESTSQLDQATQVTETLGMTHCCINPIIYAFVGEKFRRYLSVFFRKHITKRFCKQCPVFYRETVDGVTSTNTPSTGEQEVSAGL

THP-1 cells [2] = conditions: Homo sapiens
[3] = THP-1 cells, MCP-1 0.01 μg/mL, 3 hours
[4] = THP-1, read-out: Inhibition of MCP-1 Induced Calcium Ion Influx IC50
[5] = THP-1, 3 h, THP-1 cells, MCP-1 0.01 μg/mL, 3 hours
[6] = Inhibition of MCP-1 Binding IC50, 125I labeled MCP-1 binding to CCR2, THP-1 cells
[7] = THP-1, read-out: Inhibition of MCP-1 Induced Calcium Ion Influx IC50, THP-1 cells, 0.2 μM MCP-1, FLIPR

IC50 (THP-1 cells [1]; [3]) | IC50 (CCR2) | IC50 (THP-1 cells [2]; [4]) | IC50 (THP-1 cells [1]; [5]) | IC50 (CCR2; [6]) | IC50 (THP-1 cells [2]; [7]) | Structure (SMILES) | inhibition at 25 µM (THP-1 cells [2]; THP-1, read-out: Inhibition of MCP-1 Induced Calcium Ion Influx, percent inhibition) | IC50 (THP-1 cells [1]; THP-1, 3 h)
700 nM | 250 nM | 1800 nM | – | – | – | CC(=O)NCC(C1CCN(C(=O)/C=C/c2cccc(C)c2)CC1)N1CCC(c2c[nH]c3ccccc23)CC1 (stereo not shown) [Cpd 216] | – | –
– | – | – | 95 nM | 6 nM | 1 nM | O=C(/C=C/c1ccc(F)c(F)c1)N1CCC(C(CO)N2CCC(c3c[nH]c4ccccc34)CC2)CC1 (stereo not shown) [Cpd 113, (2E)-3-(3,4-difluoro-phenyl)-1-(4-{2-hydroxy-1-[4-(1H-indol-3-yl)-piperidin-1-yl]-ethyl}-piperidin-1-yl)-propenone] | – | –
1300 nM | 140 nM | 140 nM | – | – | – | O=C(/C=C/c1cc(F)c(F)c(F)c1)N1CCC(C(CO)N2CCC(c3ccc(F)cc3)CC2)CC1 (stereo not shown) [Cpd 193] | – | –
720 nM | 170 nM | 160 nM | – | – | – | O=C(/C=C/c1cc(F)c(F)c(F)c1)N1CCC(C(CO)N2CCC(c3ccc4c(c3)OCO4)CC2)CC1 (stereo not shown) [Cpd 189, (2E)-1-{4-[1-(4-benzo[1,3]dioxol-5-yl-piperidin-1-yl)-2-hydroxy-ethyl]-piperidin-1-yl}-3-(3,4,5-trifluoro-phenyl)-propenone] | – | –
25 nM | 80 nM | 110 nM | – | – | – | COc1ccc2c(C3CCN(C(CO)C4CCN(C(=O)/C=C/c5cc(F)cc(F)c5)CC4)CC3)c[nH]c2c1 (stereo not shown) [Cpd 165, (2E)-3-(3,5-difluoro-phenyl)-1-(4-{2-hydroxy-1-[4-(6-methoxy-1H-indol-3-yl)-piperidin-1-yl]-ethyl}-piperidin-1-yl)-propenone] | – | –
50 nM | 20 nM | 40 nM | – | – | – | COc1ccc(C2CCN(C(CO)C3CCN(C(=O)/C=C/c4ccc(Cl)c(Cl)c4)CC3)CC2)cc1 (stereo not shown) [Cpd 139, (2E)-3-(3,4-dichloro-phenyl)-1-(4-{2-hydroxy-1-[4-(4-methoxy-phenyl)-piperidin-1-yl]-ethyl}-piperidin-1-yl)-propenone] | – | –
180 nM | 90 nM | 2350 nM | – | – | – | Nc1ccc2[nH]cc(C3CCN(C(C(=O)O)C4CCN(C(=O)/C=C/c5cc(F)c(F)c(F)c5)CC4)CC3)c2n1 (stereo not shown) [Cpd 178, [4-(5-amino-1H-pyrrolo[3,2-b]pyridin-3-yl)-piperidin-1-yl]-{1-[(2E)-3-(3,4,5-trifluoro-phenyl)-acryloyl]-piperidin-4-yl}-acetic acid] | – | –
– | – | – | 9 nM | 40 nM | 10 nM | O=C(/C=C/c1cc(F)c(F)c(F)c1)N1CCC(C(CO)N2CCC(c3c[nH]c4ccc(F)cc34)CC2)CC1 (stereo not shown) [Cpd 170, (2E)-1-(4-{1-[4-(5-fluoro-1H-indol-3-yl)-piperidin-1-yl]-2-hydroxy-ethyl}-piperidin-1-yl)-3-(3,4,5-trifluoro-phenyl)-propenone] | – | –
90 nM | 70 nM | 120 nM | – | – | – | COc1ccc(C2CCN([C@H](CO)C3CCN(C(=O)/C=C/c4cc(F)cc(F)c4)CC3)CC2)cc1 [Cpd 180, (2E)-3-(3,5-difluoro-phenyl)-1-(4-{(1S)-2-hydroxy-1-[4-(4-methoxy-phenyl)-piperidin-1-yl]-ethyl}-piperidin-1-yl)-propenone] | – | –
90 nM | 50 nM | 180 nM | – | – | – | COc1ccc(C2CCN(C(CO)C3CCN(C(=O)/C=C/c4ccc(F)c(Br)c4)CC3)CC2)cc1 (stereo not shown) [Cpd 161, (2E)-3-(3-bromo-4-fluoro-phenyl)-1-(4-{2-hydroxy-1-[4-(4-methoxy-phenyl)-piperidin-1-yl]-ethyl}-piperidin-1-yl)-propenone] | – | –
217 nM | 172 nM | 1290 nM | – | – | – | COc1ccc(C2CCN(C(CO)C3CCN(C(=O)/C=C/c4ccc(F)c(F)c4)CC3)CC2)cc1 (stereo not shown) [Cpd 138, (2E)-3-(3,4-difluoro-phenyl)-1-(4-{2-hydroxy-1-[4-(4-methoxy-phenyl)-piperidin-1-yl]-ethyl}-piperidin-1-yl)-propenone] | – | –
620 nM | 210 nM | 2000 nM | – | – | – | CC(=O)NCC(C1CCN(C(=O)Nc2ccc(Cl)c(Cl)c2)CC1)N1CCC(c2c[nH]c3ccccc23)CC1 (stereo not shown) [Cpd 217] | – | –
5 nM | 2 nM | – | – | – | – | O=C(/C=C/c1cc(F)cc(F)c1)N1CCC(C(CO)N2CCC(c3c[nH]c4ccc(O)cc34)CC2)CC1 (stereo not shown) [Cpd 259, (2E)-3-(3,5-difluoro-phenyl)-1-(4-{2-hydroxy-1-[4-(5-hydroxy-1H-indol-3-yl)-piperidin-1-yl]-ethyl}-piperidin-1-yl)-propenone] | 88% | –
300 nM | 188 nM | 2300 nM | – | – | – | O=C(/C=C/c1cc(F)c(F)c(F)c1)N1CCC(C(CO)N2CCC(c3nc4ccccc4[nH]3)CC2)CC1 (stereo not shown) [Cpd 175, (2E)-1-(4-{1-[4-(1H-benzoimidazol-2-yl)-piperidin-1-yl]-2-hydroxy-ethyl}-piperidin-1-yl)-3-(3,4,5-trifluoro-phenyl)-propenone] | – | –
70 nM | 40 nM | 160 nM | – | – | – | COc1ccc(C2CCN([C@@H](CO)C3CCN(C(=O)/C=C/c4cc(F)cc(F)c4)CC3)CC2)cc1 [Cpd 181, (2E)-3-(3,5-difluoro-phenyl)-1-(4-{(1R)-2-hydroxy-1-[4-(4-methoxy-phenyl)-piperidin-1-yl]-ethyl}-1-piperidin-1-yl)-propenone] | – | –
8 nM | 30 nM | 20 nM | – | – | – | CC(=O)OCC(C1CCN(C(=O)/C=C/c2cc(F)cc(F)c2)CC1)N1CCC(c2c[nH]c3ccccc23)CC1 (stereo not shown) [Cpd 235, acetic acid 2-{1-[(2E)-3-(3,5-difluoro-phenyl)-acryloyl]-piperidin-4-yl}-2-[4-(1H-indol-3-yl)-piperidin-1-yl]-ethyl ester] | – | –
160 nM | 270 nM | 4800 nM | – | – | – | O=C(c1cc2ccccc2o1)N1CCC(C(CO)N2CCC(c3c[nH]c4ccccc34)CC2)CC1 (stereo not shown) [Cpd 154, benzofuran-2-yl-(4-{2-hydroxy-1-[4-(1H-indol-3-yl)-piperidin-1-yl]-ethyl}-piperidin-1-yl)-methanone] | – | –
1200 nM | 510 nM | 5000 nM | – | – | – | COc1ccccc1C1CCN(C(CO)C2CCN(C(=O)/C=C/c3cc(F)cc(F)c3)CC2)CC1 (stereo not shown) [Cpd 203, (2E)-3-(3,5-difluoro-phenyl)-1-(4-{2-hydroxy-1-[4-(2-methoxy-phenyl)-piperidin-1-yl]-ethyl}-piperidin-1-yl)-propenone] | – | –
140 nM | 80 nM | 130 nM | – | – | – | O=C(O)C(C1CCN(C(=O)Nc2cc(C(F)(F)F)cc(C(F)(F)F)c2)CC1)N1CCC(c2c[nH]c3ccccc23)CC1 (stereo not shown) [Cpd 136, [1-(3,5-bis-trifluoromethyl-phenylcarbamoyl)-piperidin-4-yl]-[4-(1H-indol-3-yl)-piperidin-1-yl]-acetic acid] | – | –
460 nM | 440 nM | 320 nM | – | – | – | O=C(c1cc2cc(Cl)ccc2o1)N1CCC(C(CO)N2CCC(c3c[nH]c4ccccc34)CC2)CC1 (stereo not shown) [Cpd 157, (5-chloro-benzofuran-2-yl)-(4-{2-hydroxy-1-[4-(1H-indol-3-yl)-piperidin-1-yl]-ethyl}-piperidin-1-yl)-methanone] | – | –
30 nM | 20 nM | 30 nM | – | – | – | CS(=O)(=O)Nc1ccc2[nH]cc(C3CCN(C(C(=O)O)C4CCN(C(=O)Nc5ccc(Cl)c(Cl)c5)CC4)CC3)c2c1 (stereo not shown) [Cpd 109, [1-(3,4-dichloro-phenylcarbamoyl)-piperidin-4-yl]-[4-(5-methanesulfonylamino-1H-indol-3-yl)-piperidin-1-yl]-acetic acid] | – | –
170 nM | – | 90 nM | – | – | – | CC(=O)NCC(C1CCN(C(=O)/C=C/c2cc(F)c(F)c(F)c2)CC1)N1CCC(c2c[nH]c3ccccc23)CC1 (stereo not shown) [Cpd 213, N-(2-[4-(1H-indol-3-yl)-piperidin-1-yl]-2-{1-[(2E)-3-(3,4,5-trifluoro-phenyl)-acryloyl]-piperidin-4-yl}-ethyl)-acetamide] | – | –
10 nM | – | 8 nM | – | – | – | O=C(/C=C/c1cccc(C(F)(F)F)c1)N1CCC(C(CO)N2CCC(c3c[nH]c4ccccc34)CC2)CC1 (stereo not shown) [Cpd 119, (2E)-1-(4-{2-hydroxy-1-[4-(1H-indol-3-yl)-piperidin-1-yl]-ethyl}-piperidin-1-yl)-3-(3-trifluoromethyl-phenyl)-propenone] | – | –
240 nM | – | 410 nM | – | – | – | O=C(O)C(C1CCN(C(=O)Nc2ccc(Cl)cc2)CC1)N1CCC(c2c[nH]c3ccccc23)CC1 (stereo not shown) [Cpd 88, [1-(4-chloro-phenylcarbamoyl)-piperidin-4-yl]-[4-(1H-indol-3-yl)-piperidin-1-yl]-acetic acid] | – | –

Structure (SMILES) | IC50 (THP-1 cells [1]; [3]) | IC50 (CCR2) | IC50 (THP-1 cells [2]; [4]) | IC50 (THP-1 cells [1]; [5]) | IC50 (CCR2; [6]) | IC50 (THP-1 cells [2]; [7]) | inhibition at 25 µM (THP-1 cells [2]; THP-1, read-out: Inhibition of MCP-1 Induced Calcium Ion Influx, percent inhibition) | IC50 (THP-1 cells [1]; THP-1, 3 h)
O=C(O)[C@@H](C1CCN(C(=O)/C=C/c2cc(F)c(F)c(F)c2)CC1)N1CCC(c2c[nH]c3ccccc23)CC1 [Cpd 14] | – | – | 1130 nM | – | – | – | – | 70 nM
Cc1ccc(NC(=O)N2CCC(C(C(=O)O)N3CCC(c4c[nH]c5ccccc45)CC3)CC2)cc1C (stereo not shown) [Cpd 100, [1-(3,4-dimethyl-phenylcarbamoyl)-piperidin-4-yl]-[4-(1H-indol-3-yl)-piperidin-1-yl]-acetic acid] | – | – | 480 nM | – | – | – | – | 940 nM
